Here are results for seven compounds from patent US4460595A, “Using urazole analogs of prostaglandins for bronchodilation” (Beecham Group Limited, priority 1976, dated 1984).

This test has as its system 5-hydroxytryptamineor histamine induced bronchoconstriction. The experiment in a line: Inhibition of 5-hydroxytryptamine or histamine induced bronchoconstriction (Konzett-Rossler preparation). The test is classed as in vivo. The settings on record: Cavia porcellus, iv, anaesthetised artificially respired guinea-pig. An excerpt:
The compounds are examined for their ability to inhibit 5-hydroxytryptamineor histamine induced bronchoconstriction in the anaesthetised artificially respired guinea-pig (Konzett-Rossler preparation).
The ED50 values (μg/kg, i.v.) for inhibition of bronchoconstriction for a variety of the triazolidine-3,5-diones are given in Table 7.
In turn, `CCCCCC(O)CCn1c(=O)n(C)c(=O)n1CCCCCCC(=O)OCC` (stereo not shown) [Compound 21, 1-(6'-Ethoxycarbonyl-n-hexyl)-2-(3"-hydroxy-n-octyl)-4-methyl-1,2,4-triazolidine-3,5-dione] showed a 50% effective dose (ED50) of 3.4 µg/kg.

Consider `CCCCCC(O)CCn1c(=O)n(C)c(=O)n1CCCCCCC(=O)O` (stereo not shown) [Compound 24, 1-(6'-Carboxy-n-hexyl)-2-(3"-hydroxy-n-octyl)-4-methyl-1,2,4-triazolidine-3,5-dione], for which the ED50 was 4 µg/kg. The ED50 values of the last two compounds are within 1.5-fold of each other.

Turning to `CCCCCCC(C)(O)CCn1c(=O)n(C)c(=O)n1CCCCCCC(=O)OC` (stereo not shown) [Compound 29, 1-(6'-methoxycarbonyl-n-hexyl-)-2-(3"-hydroxy-3"-methyl-n-nonyl)-4-methyl-1,2,4-triazolidine-3,5-dione], the ED50 was found to be 2.6 µg/kg. Compared with the last compound, the ED50 is about 1.5-fold lower.

`COC(=O)CCCCCCn1c(=O)n(C)c(=O)n1CCC(C)(O)Cc1ccccc1` (stereo not shown) [Compound 31] showed an ED50 of 37 µg/kg.

As to `CCCCC(C)C(C)(O)CCn1c(=O)n(C)c(=O)n1CCCCCCC(=O)OC` (stereo not shown) [Compound 32], the ED50 amounted to 0.74 µg/kg.

Consider `COC(=O)CCCCCCn1c(=O)n(C)c(=O)n1CCC(C)(O)C1CCCCC1` (stereo not shown) [Compound 33], for which the 50% effect level (ED50) was put at a dose of 2.6 µg/kg.

`CCCCCCC(C)(O)CCn1c(=O)n(C)c(=O)n1CC=CCCCC(=O)OC` (stereo not shown) [Compound 43, 1-(6'-methoxycarbonyl-n-hex-2-enyl)-2-(3"-hydroxy-3"-methyl-n-nonyl)-4-methyl-1,2,4-triazolidine-3,5-dione] registered an ED50 of 1.9 µg/kg. This ED50 and that of the compound before are within 1.5-fold of each other.
